The ED50 is the dose that gives a 50% effect, or the effect in half of the subjects. The LD50 is the dose at which mortality reaches 50%.

Here are results for 14 compounds from patent US4636513A, “Isoxazole derivatives and medicaments containing these compounds” (Hoechst Aktiengesellschaft, priority 1984, dated 1987).

One data set deals with mice. The data set can be described thus: Acetic acid extension test on mice (analgesic action). The settings on record: Mus musculus, po; for responders at 158 mg/kg: read-out: Animals which showed analgesic effect in % after an oral dose of 158 mg/kg; for ED50: read-out: Analgesic action ED50, acetic acid extension test (Mouse). The method, then:
(§1) (a) Acetic acid extension test on mice in accordance with the method of R. Koster et al., Fed. Prod.
(§2) Female mice of a N.M.R.I. strain with a body weight (BW) of between 21 and 28 g were used as the experimental animals. Groups of in each case 12 animals received 0.1 ml/10 g BW of a 0.6% strength acetic acid solution, injected intraperitoneally. The test substances were administered 30 minutes beforehand. Immediately after the acetic acid injection, the animals were placed individually and the typical extension movements occurring within 15 minutes were counted, these consisting of brief flexing of the abdominal muscles with withdrawal of the sides and subsequent extension of the rear of the body and of at least one rear extremity.
(§3) The test substances were administered orally in a volume of 10 ml/kg BW in 1% strength aqueous carboxymethylcellulose (CMC) suspension.

Experiment in data set [1]: as above
The settings on record: mouse, in vivo, po. The procedure:
as §1, §2, §3

Data set [2] in a line: Modified Randall-Selitto hyperalgesia test on rats (analgesic action). The conditions noted are these: rat, in vivo, po. The method, then:
(§4) (b) Modified Randall-Selitto hyperalgesia test on rats in accordance with the method of Atkinson et al., J. Pharm. Pharmac.
(§5) Male Sprague-Dawley rats with a body weight of 200 to 300 g were used as the experimental animals. The experimental animals were given a subplantar injection of 0.2 ml of brewer's yeast suspension (40% of yeast in 0.9% strength NaCl solution) into the left hind paw under mild ether anaesthesia. After 5 hours, the gait of the animals over a metal grating was evaluated according to the following scale:
(§6) The evaluation was effected by determining the percentage of animals evaluated with stage 1 or 0.5, two animals given 0.5 being regarded as showing an analgesic effect.
(§7) The test substances were administered orally, to animals which had been fasted for 15 hours, in CMC suspension in a volume of 10 ml/kg BW two hours before the evaluation of the animals. In order to exclude subjective influences, the evaluation was performed by two people independently of one another and without knowledge of the pretreatment of the animals (n=10/dose). The ED50 values were determined with the aid of linear regression in accordance with the method of Fieller and Sidak.

In data set [3] the test system is rats. The description is as above. The conditions noted are these: Rattus norvegicus, po, 2 h, read-out: Analgesic action ED50, Randall-Selitto test (Rat). The method, then: as §4, §5, §6, §7
The nature of data set [4]: Gastrointestinal ulcerogenicity. Format: in vivo, rat (male Sprague-Dawley). The settings on record: in vivo, po, rat. The method, then: (§8) In this test on male Sprague-Dawley rats with a body weight of between 200 and 300 g, an increased sensitivity of the gastric mucosa toward the ulcerogenic action of non-steroid antiflammatories was induced by hunger stress (withdrawal of food for a total of 72 hours).
(§9) 48 hours before administration of the test substances, the food was withdrawn from the animals until the end of the experiment, the animals having free access to drinking water.
(§10) 24 hours after oral administration of the product, the animals were sacrificed and the stomachs were removed, cut along the lesser curvature, cleaned under running water and inspected for lesions in the mucous membrane. All the macroscopically visible lesions of the mucosa in the glandular atomach were regarded as ulcers. The proportion of animals with ulcers per dose was determined.
(§11) The test substances were administered as a solution in CMC suspension in a volume of 1 ml/100 g of body weight. The UD50 (dose at which 50% of the animals had ulcers) was determined with the aid of Probit analysis and the confidence range was determined by the method of Fieller.

The nature of the next data set: in vivo. The settings on record: po, rat, administered orally, read-out: Toxicity LD50. Details: species or system rat (male and female Wistar). The method, then: The animals were used in the experiment after being fasted for about 18 hours and only received food again five hours after administration of the product. After a three-week observation period, they were sacrificed with chloroform and autopsied. The organs were assessed macroscopically. The test compounds were dissolved in 1% strength CMC suspension and administered to the rats through a stomach tube in a volume of 5 ml/kg BW.

Data set [5] concerns prostaglandin synthetases. The conditions noted are these: cited from earlier work.
Data set [6] deals with rats. Description: Antipyretic action, yeast fever test on rats. The format is in vivo, rat (female Sprague-Dawley). The settings on record: for Reduction in body temperature at 60 min / Reduction in body temperature at 120 min / Reduction in body temperature at 180 min / Reduction in body temperature at 240 min: rat, orally. The procedure:
The investigations were carried out on female Sprague-Dawley rats with a body weight of 150 g and fed on drinking water ad libitum and a standard diet. […] The body temperature was measured rectally by means of second thermometers at room temperature (24° C.). The number of animals was n=6 per dose. The average reduction in body temperature in comparison with the simultaneous value of the untreated control animals was recorded.

In another data set the test system is gastric mucosa. Description: Gastrointestinal ulcerogenicity. Format: in vivo, rat (male Sprague-Dawley). The conditions noted are these: doses of up to 400 mg/kg, rat, oral. The procedure: as §8, §9, §10, §11
The test system of a further data set is isolated pig ureter. The data set can be described thus: Inhibition of potassium chloride-induced spasms on the isolated pig ureter. The source says:
In contrast, the compounds of the formula I exert a significant inhibiting action in this experimental design.

The conditions of data set [7]: biliary, gastrointestinal and urogenital tract; cited from earlier work.

Converted amounts (≈) assume the structure as drawn. Read-outs that look alike come from different tables or passages of the source.

In the case of `Cc1noc(C)c1C(=O)N1CCCCC1` [3,5-Dimethyl-4-isoxazole-carboxylic acid piperidide, reference compound], the responders at 158 mg/kg in the data set with mice turned out to be 25%.

On to `CCN(CC)C(=O)c1cnoc1C` [5-Methyl-4-isoxazolecarboxylic acid N,N--diethylamide, reference compound], for which the responders at 158 mg/kg with mice turned out to be 25%.

On to `CC(=O)Oc1ccccc1C(=O)O` [Acetylsalicylic acid, reference compound], for which the selectivity ratio in data set [1] came to 10.9; in data set [2], 8.2. In addition, the ED50 with mice amounted to 138 mg/kg; in the data set on rats [3] it was 182 mg/kg. In the data set on mice, the responders at 158 mg/kg came to 48%. Also, in [4] (administered orally, fasted, 24 h after administration, read-out: Ulcerogenicity UD50), the TD50 at 24 h worked out at 31 mg/kg. Moreover, the LD50 at 504 h in “in vivo” was found to be 1500 mg/kg. In addition, the “Inhibition of peripheral prostaglandin biosynthesis” value in data set [5] is reported as “inhibitor of peripheral prostaglandin biosynthesis”.

For `Cc1oncc1C(=O)N1CCCCC1` [Example 1, N-(5-Methyl-4-isoxazolylcarbonyl)-piperidine], in the data set on mice, the ED50 worked out at 45 mg/kg and the responders at 158 mg/kg worked out at 83%. Further, the ED50 with rats [3] was determined as 85 mg/kg. Moreover, the “Reduction in fever in comparison with Paracetamol” value in the data set on rats [6] (50 mg/kg oral versus Paracetamol 100 mg/kg oral) is “both more powerful and clearly lasts longer than that of the comparison product Paracetamol”. In the data set with rats [6] (50 mg/kg), the “Reduction in body temperature at 60 min” value was 1.3 °C, the “Reduction in body temperature at 120 min” value turned out to be 1.6 °C, the “Reduction in body temperature at 180 min” value worked out at 1.3 °C and the “Reduction in body temperature at 240 min” value is 0.8 °C. Further, in the data set with rats [6] (100 mg/kg), the “Reduction in body temperature at 60 min” value worked out at 2.0 °C, the “Reduction in body temperature at 120 min” value amounted to 2.0 °C, the “Reduction in body temperature at 180 min” value worked out at 1.5 °C and the “Reduction in body temperature at 240 min” value was found to be 1.1 °C. Further, the TD50 at 24 h in data set [4] was greater than 400 mg/kg. Moreover, the “Lesions of the mucous membrane” value with gastric mucosa is on record as “no lesions of the mucous membrane were detected”. Besides, the IC50 with isolated pig ureter (Sus scrofa, potassium chloride-induced spasms, read-out: ED50 (inhibition of spasms), concentration) stood at 410 µg/mL (≈ 2110 µM).

In the case of `CCc1oncc1C(=O)N1CCCCC1` [Example 2, N-(5-Ethyl-4-isoxazolylcarbonyl)-piperidine], the responders at 158 mg/kg in the data set with mice worked out at 83%.

Consider `Cc1oncc1C(=O)N1CCCC1` [Example 3, N-(5-Methyl-4-isoxazolylcarbonyl)-pyrrolidine], for which, in the data set on mice, the responders at 158 mg/kg amounted to 83%.

Regarding `Cc1oncc1C(=O)N1CCC(C)CC1` [Example 4, 4-Methyl-1-(5-methyl-4-isoxazolylcarbonyl)-piperidine], the responders at 158 mg/kg in the data set on mice was 67%.

On to `Cc1oncc1C(=O)N1CCSCC1` [Example 5, N-(5-Methyl-4-isoxazolylcarbonyl)-thiomorpholine], for which the responders at 158 mg/kg in the data set on mice was 59%.

In the case of `Cc1oncc1C(=O)N1CCC(O)CC1` [Example 6, 4-Hydroxy-1-(5-methyl-4-isoxazolylcarbonyl)-piperidine], in the data set with mice, the responders at 158 mg/kg worked out at 50%.

On to `O=C(c1cnoc1)N1CCCCC1` [Example 7, N-(4-Isoxazolylcarbonyl)-piperidine], for which the responders at 158 mg/kg in the data set with mice turned out to be 50%.

Consider `O=C(c1cnoc1C(F)(F)F)N1CCCCC1` [Example 8, N-(5-Trifluoromethyl-4-isoxazolylcarbonyl)-piperidine], for which the responders at 158 mg/kg in the data set with mice was determined as 75%.

Regarding `CCCc1oncc1C(=O)N1CCCCC1` [Example 9, N-(5-Propyl-4-isoxazolylcarbonyl)-piperidine], the responders at 158 mg/kg with mice is 67%.

As to `Cc1oncc1C(=O)N1CCOCC1` [Example 10, N-(5-Methyl-4-isoxazolylcarbonyl)-morpholine], the responders at 158 mg/kg in the data set with mice was determined as 42%.

With `CC(=O)Nc1ccc(O)cc1` [Paracetamol, reference compound], in the data set on mice, the ED50 stood at 155 mg/kg and the responders at 158 mg/kg was 50%. Moreover, the ED50 with rats [3] is 334 mg/kg. For the same compound, in the data set with rats [6] (100 mg/kg), the “Reduction in body temperature at 60 min” value turned out to be 1.3 °C, the “Reduction in body temperature at 120 min” value was found to be 1.1 °C, the “Reduction in body temperature at 180 min” value is 0.4 °C and the “Reduction in body temperature at 240 min” value was 0 °C. This compound returned a TD50 at 24 h in data set [4] greater than 400 mg/kg. For the same compound, the “Inhibiting effect on spasms” value in the data set with isolated pig ureter (potassium chloride) is given as “no inhibiting effect on spasms”. Moreover, in data set [7], the “Suitability for treating pain of spastic origin” value is recorded as “unsuitable for treating pain of spastic origin”.
